Key:
[1] = target: T1, Human LBAT (Homo sapiens, UniProt Q14973); assay: LBAT (h/m) assay: 3H-taurocholic acid uptake in human LBAT-overexpressing cells; type: cell-based; conditions: 0.3 μM 3H-taurocholic acid and 7.5 μM cold taurocholic acid, 20 minutes, read-out: hLBAT IC50
T1 construct: expressed in transfected cells; kept under Geneticin selection
T1 sequence (Q14973 1-349): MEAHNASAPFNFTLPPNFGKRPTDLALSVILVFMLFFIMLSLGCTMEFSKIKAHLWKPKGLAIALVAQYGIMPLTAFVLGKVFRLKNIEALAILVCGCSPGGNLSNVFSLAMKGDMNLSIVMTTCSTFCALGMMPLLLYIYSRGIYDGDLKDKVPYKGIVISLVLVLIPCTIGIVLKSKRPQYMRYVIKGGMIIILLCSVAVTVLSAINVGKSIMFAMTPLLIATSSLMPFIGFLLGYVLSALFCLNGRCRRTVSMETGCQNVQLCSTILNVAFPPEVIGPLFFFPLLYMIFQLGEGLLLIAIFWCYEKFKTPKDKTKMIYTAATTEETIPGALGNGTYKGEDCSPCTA
Summary of the method: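 LBAT-overexpressing cells, serum-free MEM-alpha, 20 min at 37° C with inhibitor (3-fold, 10-point) plus 0.3 μM 3H-taurocholic acid and cold taurocholic acid (7.5 μM human; 25 μM mouse), 0.2% DMSO. Stopped on ice, washed with 1 mM unlabelled taurocholate; uptake by scintillation counting.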

[2] = Bioavailability studies in mice; type: in vivo; conditions: mouse; C57BL/6 mice; single intravenous dose 1 mg/kg vs single oral dose 10 mg/kg; plasma LC-MS/MS
Protocol: C57BL/6 mice of 8-9 weeks old were used. For each test compound, two groups of 3 animals each were used. One group was administered a single intravenous dose of 1 mg/kg (vehicle 100% DMSO) through the tail vein and the other group was administered a single oral dose of 10 mg/kg through gavage needle. The group that was administered an oral dose was fasted overnight. Blood samples were collected after 0.083, 0.25, 0.5, 1, 2, 4, 6, 8 and 24 hours following intravenous administration, and after 0.25, 0.5, 1, 2, 4, 6, 8 and 24 hours following oral administration. Blood samples were taken from saphenous vein. 0.2% EDTA was used as the anticoagulant. The samples were analyzed by a discovery grade bioanalytical method developed for the estimation of test compound in plasma, using an LC-MS/MS system.

[3] = tested on: HepaRG cells; assay: HepaRG-based assay: 3H-taurocholic acid uptake in differentiated HepaRG cells; type: cell-based; conditions: 0.3 μM 3H-taurocholic acid and 7.5 μM cold taurocholic acid, 30 minutes
Summary of the method: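 Differentiated HepaRG cells cultured 7 days post-seeding were exposed for 30 min at 37 °C to 0.3 μM 3H-taurocholic acid plus 7.5 μM cold taurocholic acid with inhibitor (3-fold dilutions, 0.2% DMSO). Uptake was stopped on ice, washed with 1 mM unlabelled taurocholic acid, and counted by scintillation.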

Structure (SMILES) | IC50 [1] [nM] | bioavailability [2] [%] | IC50 [3] [nM] | IC50 ([3]; Homo sapiens, HepaRG) [nM]
CCCCC1(CC)CN(c2ccccc2)c2cc(Cl)c(O/C=C(\F)C(=O)O)cc2S(=O)(=O)C1 (single isomer, unassigned) [Example 48, (Z)-3-((3-butyl-7-chloro-3-ethyl-1,1-dioxido-5-phenyl-2,3,4,5-tetrahydro-1,5-benzothiazepin-8-yl)oxy)-2-fluoroacrylic acid] | 8.1 | 18 | 260 | 
CCCCC1(CC)CN(c2ccccc2)c2cc(SC)c(O/C=C/C(=O)O)cc2S(=O)(=O)C1 (single isomer, unassigned) [Example 18, (E)-3-((3-butyl-3-ethyl-7-(methylthio)-1,1-dioxido-5-phenyl-2,3,4,5-tetrahydro-1,5-benzothiazepin-8-yl)oxy)acrylic acid] | 80 | 35 |  | 1260
CCCCC1(CCCC)CN(c2ccccc2)c2cc(SC)c(O/C=C(\F)C(=O)O)cc2S(=O)(=O)C1 [Example 11, (Z)-3-((3,3-dibutyl-7-(methylthio)-1,1-dioxido-5-phenyl-2,3,4,5-tetrahydro-1,5-benzothiazepin-8-yl)oxy)-2-fluoroacrylic acid] | 45 | 27 |  | 1090
CCC1(CC)CN(c2ccccc2)c2cc(SC)c(O/C=C(\F)C(=O)O)cc2S(=O)(=O)C1 [Example 44, (Z)-3-((3,3-diethyl-7-(methylthio)-1,1-dioxido-5-phenyl-2,3,4,5-tetrahydro-1,5-benzothiazepin-8-yl)oxy)-2-fluoroacrylic Acid] | 9.1 | 100 |  | 205
CCCCC1(CC)CN(c2ccccc2)c2cc(Br)c(O/C=C/C(=O)O)cc2S(=O)(=O)C1 (single isomer, unassigned) [Example 6, (E)-3-((7-bromo-3-butyl-3-ethyl-1,1-dioxido-5-phenyl-2,3,4,5-tetrahydro-1,5-benzothiazepin-8-yl)oxy)acrylic acid] | 156 | 100 |  | 809
CCCCC1(CC)CN(c2ccccc2)c2cc(SC)c(O/C=C(\F)C(=O)O)cc2S(=O)(=O)C1 (single isomer, unassigned) [Example 43, (Z)-3-((3-butyl-3-ethyl-7-(methylthio)-1,1-dioxido-5-phenyl-2,3,4,5-tetrahydro-1,5-benzothiazepin-8-yl)oxy)-2-fluoroacrylic acid] | 8 | 44 | 405 | 

— US11306064B2, “Benzothia(di)azepine compounds and their use as bile acid modulators” (Albireo AB, priority 2018, dated 2022)
